According to patent US10143731B2, “Peptides and combination of peptides for use in immunotherapy against various cancers” (immatics biotechnologies GmbH, priority 2015, dated 2018):

test system: CD8+ T cells; experiment: In vitro T-cell priming assay (aAPCs loaded with peptide/MHC and anti-CD28, multimer staining readout); format: cell-based, human; settings: in vitro immunogenicity of HLA class I peptides
Experimental: In an aspect, the peptides are pre-screened for immunogenicity before being included in the warehouse. By way of example, and not limitation, the immunogenicity of the peptides included in the warehouse is determined by a method comprising in vitro T-cell priming through repeated stimulations of CD8+ T cells from healthy donors with artificial antigen presenting cells loaded with peptide/MHC complexes and anti-CD28 antibody.
In order to obtain information regarding the immunogenicity of the TUMAPs of the present invention, the inventors performed investigations using an in vitro T-cell priming assay based on repeated stimulations of CD8+ T cells with artificial antigen presenting cells (aAPCs) loaded with peptide/MHC complexes and anti-CD28 antibody.
In order to perform in vitro stimulations by artificial antigen presenting cells loaded with peptide-MHC complex (pMHC) and anti-CD28 antibody, the inventors first isolated CD8+ T cells from fresh HLA-A*02 leukapheresis products via positive selection using CD8 microbeads (Miltenyi Biotec, Bergisch-Gladbach, Germany) of healthy donors obtained from the University clinics Mannheim, Germany, after informed consent.
PBMCs and isolated CD8+ lymphocytes were incubated in T-cell medium (TCM) until use consisting of RPMI-Glutamax (Invitrogen, Karlsruhe, Germany) supplemented with 10% heat inactivated human AB serum (PAN-Biotech, Aidenbach, Germany), 100 U/ml Penicillin/100 μg/ml Streptomycin (Cambrex, Cologne, Germany), 1 mM sodium pyruvate (CC Pro, Oberdorla, Germany), 20 μg/ml Gentamycin (Cambrex). 2.5 ng/ml IL7 (PromoCell, Heidelberg, Germany) and 10 U/ml IL-2 (Novartis Pharma, Nürnberg, Germany) were also added to the TCM at this step.
Generation of pMHC/anti-CD28 coated beads, T-cell stimulations and readout was performed in a highly defined in vitro system using four different pMHC molecules per stimulation condition and 8 different pMHC molecules per readout condition.
The purified co-stimulatory mouse IgG2a anti human CD28 Ab 9.3 (Jung et al., 1987) was chemically biotinylated using Sulfo-N-hydroxysuccinimidobiotin as recommended by the manufacturer (Perbio, Bonn, Germany). Beads used were 5.6 μm diameter streptavidin coated polystyrene particles (Bangs Laboratories, Illinois, USA).
pMHC used for positive and negative control stimulations were A*0201/MLA-001 (peptide […] (SEQ ID NO. 303) from modified Melan-A/MART-1) and A*0201/DDX5-001 ([…] from DDX5, SEQ ID NO. 304), respectively.
800.000 beads/200 μl were coated in 96-well plates in the presence of 4×12.5 ng different biotin-pMHC, washed and 600 ng biotin anti-CD28 were added subsequently in a volume of 200 μl. Stimulations were initiated in 96-well plates by co-incubating 1×10^6 CD8+ T cells with 2×10^5 washed coated beads in 200 μl TCM supplemented with 5 ng/ml IL-12 (PromoCell) for 3 days at 37° C. Half of the medium was then exchanged by fresh TCM supplemented with 80 U/ml IL-2 and incubating was continued for 4 days at 37° C. This stimulation cycle was performed for a total of three times. For the pMHC multimer readout using 8 different pMHC molecules per condition, a two-dimensional combinatorial coding approach was used as previously described (Andersen et al., 2012) with minor modifications encompassing coupling to 5 different fluorochromes. Finally, multimeric analyses were performed by staining the cells with Live/dead near IR dye (Invitrogen, Karlsruhe, Germany), CD8-FITC antibody clone SK1 (BD, Heidelberg, Germany) and fluorescent pMHC multimers. For analysis, a BD LSRII SORP cytometer equipped with appropriate lasers and filters was used. Peptide specific cells were calculated as percentage of total CD8+ cells. Evaluation of multimeric analysis was done using the FlowJo software (Tree Star, Oregon, USA). In vitro priming of specific multimer+CD8+ lymphocytes was detected by comparing to negative control stimulations.

Row | Substance | Wells positive [%]
1 | 5 (GIVAHIQEV; listed as Homo sapiens) [compound 5] | + (<20% = +)
2 | 18 (ILLDLTDNRL; listed as Homo sapiens) [compound 18] | + (<20% = +)
3 | 23 (SLFSDEFKV; listed as Homo sapiens) [compound 23] | ++++ (> = 70% = ++++)
4 | 26 (ALQEELTEL; listed as Homo sapiens) [compound 26] | + (<20% = +)
5 | 29 (YLLDPSITL; listed as Homo sapiens) [compound 29] | + (<20% = +)
6 | 31 (TITETTVEV; listed as Homo sapiens) [compound 31] | + (<20% = +)
7 | 35 (FLLPFSTVYL; listed as Homo sapiens) [compound 35] | + (<20% = +)
8 | 90 (FLQDLEQRL; listed as Homo sapiens) [compound 90] | + (<20% = +)
9 | 141 (FLDKVLVAA; listed as Homo sapiens) [compound 141] | + (<20% = +)
10 | 149 (ILNTHITEL; listed as Homo sapiens) [compound 149] | + (<20% = +)
11 | 196 (LYIDRPLPYL; listed as Homo sapiens) [compound 196] | ++++ (> = 70% = ++++)
12 | 197 (EYSLFPGQVVI; listed as Homo sapiens) [compound 197] | + (<20% = +)
13 | 207 (AYVVFVSTL; listed as Homo sapiens) [compound 207] | + (<20% = +)
14 | 218 (YYKSTSSAF; listed as Homo sapiens) [compound 218] | + (<20% = +)
15 | 230 (KLQNIMMLL; listed as Homo sapiens) [compound 230] | ++++ (> = 70% = ++++)
16 | 268 (QYLGQIQHI; listed as Homo sapiens) [compound 268] | + (<20% = +)
17 | 269 (YFIDSTNLKTHF; listed as Homo sapiens) [compound 269] | + (<20% = +)
18 | 285 (HYPPVQVLF; listed as Homo sapiens) [compound 285] | + (<20% = +)

test system: HLA-A*24; experiment: MHC binding assay by UV-ligand exchange and beta2m ELISA, HLA-A*24; design: species or system human; settings: binding to HLA-A*24 ranged by peptide exchange yield (UV-ligand exchange, β2m ELISA)
From the text: MHC Binding Assays Candidate peptides for T cell based therapies according to the present invention were further tested for their MHC binding capacity (affinity). The individual peptide-MHC complexes were produced by UV-ligand exchange, where a UV-sensitive peptide is cleaved upon UV-irradiation, and exchanged with the peptide of interest as analyzed. Only peptide candidates that can effectively bind and stabilize the peptide-receptive MHC molecules prevent dissociation of the MHC complexes. To determine the yield of the exchange reaction, an ELISA was performed based on the detection of the light chain (β2m) of stabilized MHC complexes. The assay was performed as generally described in Rodenko et al. (Rodenko et al., 2006).
96 well MAXISorp plates (NUNC) were coated over night with 2 ug/ml streptavidin in PBS at room temperature, washed 4× and blocked for 1 h at 37° C. in 2% BSA containing blocking buffer. Refolded HLA-A*02:01/MLA-001 monomers served as standards, covering the range of 15-500 ng/ml. Peptide-MHC monomers of the UV-exchange reaction were diluted 100 fold in blocking buffer. Samples were incubated for 1 h at 37° C., washed four times, incubated with 2 ug/ml HRP conjugated anti-β2m for 1 h at 37° C., washed again and detected with TMB solution that is stopped with […]. Absorption was measured at 450 nm. Candidate peptides that show a high exchange yield (preferably higher than 50%, most preferred higher than 75%) are generally preferred for a generation and production of antibodies or fragments thereof, and/or T cell receptors or fragments thereof, as they show sufficient avidity to the MHC molecules and prevent dissociation of the MHC complexes.

Row | Substance | Peptide exchange
19 | 166 (YYVESGKLF; listed as Homo sapiens) [compound 166] | ++++ (> = 75% = ++++)
20 | 179 (MYDSYWRQF; listed as Homo sapiens) [compound 179] | ++++ (> = 75% = ++++)
21 | 211 (YYLEVGKTLI; listed as Homo sapiens) [compound 211] | ++++ (> = 75% = ++++)
22 | 216 (QYSSVFKSL; listed as Homo sapiens) [compound 216] | ++++ (> = 75% = ++++)
23 | 271 (LYHDIFSRL; listed as Homo sapiens) [compound 271] | ++++ (> = 75% = ++++)

Results, then the substance that gave them:

Row | Peptide exchange | Substance
24 | ++++ (> = 75% = ++++) | 160 (VYTLDIPVL; listed as Homo sapiens) [compound 160]
25 | ++++ (> = 75% = ++++) | 161 (IYLVSIPEL; listed as Homo sapiens) [compound 161]
26 | ++++ (> = 75% = ++++) | 168 (KYQDILETI; listed as Homo sapiens) [compound 168]
27 | ++++ (> = 75% = ++++) | 172 (TYTTVPRVAF; listed as Homo sapiens) [compound 172]
28 | ++++ (> = 75% = ++++) | 173 (IYSWILDHF; listed as Homo sapiens) [compound 173]
29 | ++++ (> = 75% = ++++) | 175 (YYEVHKELF; listed as Homo sapiens) [compound 175]
30 | ++++ (> = 75% = ++++) | 177 (VYPWLGALL; listed as Homo sapiens) [compound 177]
31 | ++++ (> = 75% = ++++) | 181 (LYLDIINLF; listed as Homo sapiens) [compound 181]
32 | ++++ (> = 75% = ++++) | 184 (VFQNFPLLF; listed as Homo sapiens) [compound 184]
33 | ++++ (> = 75% = ++++) | 186 (IFPQFLYQF; listed as Homo sapiens) [compound 186]
34 | ++++ (> = 75% = ++++) | 187 (TYLRDQHFL; listed as Homo sapiens) [compound 187]
35 | ++++ (> = 75% = ++++) | 192 (SYALLTYMI; listed as Homo sapiens) [compound 192]
36 | ++++ (> = 75% = ++++) | 193 (RFHPTPLLL; listed as Homo sapiens) [compound 193]
37 | ++++ (> = 75% = ++++) | 195 (TYSVSFPMF; listed as Homo sapiens) [compound 195]
38 | ++++ (> = 75% = ++++) | 202 (VYWDSAGAAHF; listed as Homo sapiens) [compound 202]
39 | ++++ (> = 75% = ++++) | 210 (IYTMIYRNL; listed as Homo sapiens) [compound 210]
40 | ++++ (> = 75% = ++++) | 217 (FFPPTRQMGLLF; listed as Homo sapiens) [compound 217]
41 | ++++ (> = 75% = ++++) | 227 (IFLDYEAGTLSF; listed as Homo sapiens) [compound 227]
42 | ++++ (> = 75% = ++++) | 228 (KYTSWYVAL; listed as Homo sapiens) [compound 228]
43 | ++++ (> = 75% = ++++) | 267 (KYMVYPQTF; listed as Homo sapiens) [compound 267]
44 | ++++ (> = 75% = ++++) | 272 (QYLQDAYSF; listed as Homo sapiens) [compound 272]
45 | ++++ (> = 75% = ++++) | 274 (AYLHSHALI; listed as Homo sapiens) [compound 274]
46 | ++++ (> = 75% = ++++) | 276 (VYGFQWRHF; listed as Homo sapiens) [compound 276]
47 | ++++ (> = 75% = ++++) | 277 (VYQGHTALL; listed as Homo sapiens) [compound 277]
48 | ++++ (> = 75% = ++++) | 278 (RYISDQLFTNF; listed as Homo sapiens) [compound 278]
49 | ++++ (> = 75% = ++++) | 280 (RYPDNLKHLYL; listed as Homo sapiens) [compound 280]
50 | ++++ (> = 75% = ++++) | 282 (KFVDSTFYL; listed as Homo sapiens) [compound 282]
51 | ++++ (> = 75% = ++++) | 289 (KYPVEWAKF; listed as Homo sapiens) [compound 289]
